Measurements published in patent US20080033010A1, “Combination therapy of erdosteine and beta-2 agonists for treating respiratory pathologies characterized by non reversible or partially reversible airway obstruction” (EDMOND PHARMA s.r.l., priority 2006, published 2008).

Test system: newly diagnosed COPD subjects
Test: Test of bronchial reversibility with salbutamol (spirometry, FEV1) before and after 4 and 10 days of erdosteine therapy, double-blind against placebo
Format: in vivo, humans
Description: This effect has been found in a trial utilizing the test of bronchial reversibility with salbutamol before and after 4 and 10 days of therapy with erdosteine at the dose of 900 mg/day, that is the maximum dosage presently approved in humans. The standard protocol has been used: spirometry was performed before and 15-20 minutes after the administration of […] of salbutamol with a metered inhaler. For reducing the bias, the study was double-blind against placebo and the patients selected were newly diagnosed COPD subjects never treated with −2 agonists. 7 patients were treated with erdosteine and 7 with placebo in a random order. At baseline, all the patients had only a partial reversibility (mean 2.5%) of bronchial obstruction calculated with the FEV1 (the absolute values were 1.5 liters before salbutamol and 1.537 liters after salbutamol), thus fully meeting the COPD definition. When the test was repeated at Day 4 of therapy, the reversibility of bronchial obstruction in the placebo group was not different from the baseline values (mean increase of FEV1: 0.9%), while in the erdosteine group there was a significant and unexpected increase of post-salbutamol FEV1 values in all the patients (mean increase of FEV1: 7.1%).

[1] = baseline, all the patients, before therapy
[2] = Patient #1, after 4 days of erdosteine therapy
[3] = Patient #1, after 10 days of erdosteine therapy
[4] = Patient #4, after 4 days of erdosteine therapy
[5] = Patient #4, after 10 days of erdosteine therapy
[6] = Patient #4, before therapy (baseline)

## CC(C)(C)NCC(O)c1ccc(O)c(CO)c1 (centres unmarked) [salbutamol]
baseline, all the patients, before erdosteine or placebo therapy, salbutamol alone
  partial reversibility of bronchial obstruction calculated with the FEV1 (mean): 2.5%
[1]
  FEV1 absolute value after salbutamol: 1.537 L
  FEV1 absolute value before salbutamol: 1.5 L

## O=C(O)CSCC(=O)NC1CCSC1=O (centres unmarked) [erdosteine]
[2]
  FEV1 post salbutamol: 2.05
  FEV1 pre salbutamol: 1.85
  increase of FEV1 post vs pre salbutamol: +10.8%
[3]
  FEV1 post salbutamol: 2.13
  FEV1 pre-salbutamol: 1.93
  increase of FEV1 post vs pre salbutamol: +9.4%
Patient #1, before therapy (baseline)
  FEV1 post salbutamol: 1.81
Patient #1, before therapy (baseline) (entry two)
  FEV1 pre-salbutamol: 1.81
Patient #4 (person one), before therapy (baseline)
  FEV1 pre-salbutamol: 1.19
[4]
  FEV1 post salbutamol: 1.96
  FEV1 pre salbutamol: 1.74
  increase of FEV1 post vs pre salbutamol: +12.6%
[5]
  FEV1 post salbutamol: 1.92
  FEV1 pre-salbutamol: 1.69
  increase of FEV1 post vs pre salbutamol: +13%
[6]
  FEV1 post salbutamol: 1.26
  increase of FEV1 post vs pre salbutamol: +5.9%
Erdosteine administered with beta agonists vs beta agonist alone
  reversal of the bronchial obstruction: much more evident than that obtained with the beta agonist alone
Erdosteine group (7 patients), Day 4 of therapy, erdosteine 900 mg/day, spirometry 15-20 minutes after salbutamol
  mean increase of FEV1 (reversibility of bronchial obstruction, post-salbutamol): 7.1%
Erdosteine group, final control at Day 10, erdosteine 900 mg/day
  mean increase of FEV1 (reversibility of bronchial obstruction, post-salbutamol): 10.3%
